Data as given in publication PMC9246773, “Assessing the Activity of Antimicrobial Peptides Against Common Marine Bacteria Located in Rotifer (Brachionus plicatilis) Cultures” (Probiotics and Antimicrobial Proteins, 2022).
Where two headings read alike, the source gives them in different places. No end group written: not given here.

Key:
Format in all cases: cell-based
Vibrio harveyi [1] = system: Vibrio harveyi
Protocol: (§1) A range of bacterial species with the potential to be transferred to developing fish larvae as pathogens or probiotics were selected for use in the study (Table 2). Bacterial isolates were stored at −80 °C and thawed, and 25 µL of the isolates was spread onto marine salt agar (MSA) media. All isolates were incubated at 25 °C for 18 h to reach mid-log growth phase. All isolates were sub-cultured and identified using mass spectrometry (MALDI-TOF) using the BioTyper and MBT 8468 library (Bruker Pty Ltd). The isolate Tenacibaculum discolor was plated on Anacker and Oradal’s marine (AOM) media, incubated for 48 h and identified using the aforementioned method. Bacterial isolates were suspended in sterile saline (0.75% NaCl w/v) to 0.5 McFarland standard. […] The bacterial isolates T. discolor and Pseudoalteromonas sp. require marine salts to grow and were not added to MHB (0‰). The isolate T. discolor requires low nutrients to grow, therefore, a separate MHB (25‰) was prepared at a diluted ratio of 1 part MHB and 7 parts artificial seawater (25‰).
(§2) The protocol was followed to determine the minimum inhibitory concentration (MIC) of the selected peptides. Two MIC assays were performed, firstly to determine whether each peptide precipitated in MHB and thereby required acetic acid adjustments (supplementary materials) and secondly, to determine the antimicrobial activity of each peptide in artificial seawater (25‰). Peptide stock solutions (1.3 mg mL^−1) were made by diluting the peptides in sterile deionised water. MHB was made with deionised water to reach a concentration of approaching 0‰ and artificial sea salts (Sigma-Aldrich® S9883) to reach a salinity of 25‰.
(§3) A broth microdilution protocol was followed to test whether the AMPs precipitated in MHB. The isolates T. discolor and Pseudoalteromonas were excluded from this assay because they required marine salts for growth. The peptides HHC10 and HHC36 previously required acetic acid adjustments according to [63] and were not trialled in this assay. To test if peptides required acetic acid, each peptide was diluted 1:2 in acetic acid (0.02% acetic acid w/v, containing 0.4% BSA) solution. In a 96-well polypropylene microtitre plates (Costar® 3879), 100 µL of this peptide stock was added to the first well for each bacterial isolate tested and serially diluted 2-fold with acetic acid (0.01% acetic acid w/v, containing 0.2% BSA). From each well, 10 µL of each peptide concentration was added to the corresponding wells of a new 96-well microtitre plate. From each of the bacterial suspensions in MHB (0‰), 90 µL was added to each well. […] From each of the bacterial suspensions in MHB (0‰), 50 µL was added to each well. All peptide concentrations ranged from 0.125 - 65µg mL^-1 and the bacterial suspension in each well was approximately 5 × 10^5 CFU mL^-1. Antimicrobial peptides that have an MIC value two or more dilutions higher in the assay with no acetic acid, compared to the assay with acetic acid, require acetic acid adjustments. The 96-well plates were incubated at 25 °C and read at 24 and 48 hours. The MIC was visually determined using a Sensititre™ Vizion™ Digital MIC Viewing System (Thermo Scientific™), and the lowest AMP concentration that had no bacterial growth was recorded as the MIC after 48 hours. Each bacterium was trialled in duplicate.

[2] = system: Vibrio harveyi (ATCC 35084)
Protocol: as §1, §2, §3

Vibrio alginolyticus [3] = system: Vibrio alginolyticus
Protocol: as §1, §2, §3

Vibrio scophthalmi [4] = system: Vibrio scophthalmi
Protocol: as §1, §2, §3

Vibrio rotiferianus [5] = system: Vibrio rotiferianus
Protocol: as §1, §2, §3

[6] = system: Escherichia coli (ATCC 25922)
Protocol: as §1, §2, §3

Shewanella sp. [7] = system: Shewanella sp.
Protocol: as §1, §2, §3

Vibrio harveyi [8] = system: Vibrio harveyi; remark: listed apart in the source
Protocol: as §1, §2
(§4) Once the acetic acid requirement for each peptide was determined (Table 3), the antimicrobial activity of each peptide was tested at a salinity of 0‰ and 25‰ for all bacterial isolates. A stock solution for peptides that required acetic acid was prepared by a 1:2 dilution in acetic acid (0.02% acetic acid w/v, containing 0.4% BSA) solution. In a 96-well polypropylene microtitre plates (Costar® 3879), 100 µL of this peptide stock was added to the first well for each bacterial isolate tested and serially diluted twofold with acetic acid (0.01% acetic acid w/v, containing 0.2% BSA). From each well, 10 µL of each peptide concentration was added to the corresponding wells of a new 96-well microtitre plate. From each of the bacterial suspensions (0‰), 90 µL was added to each well. […] Twofold serial dilutions were made with MHB (0‰). From each of the bacterial suspensions (0‰), 50 µL was added to each well. The same method was followed for testing peptides in MHB at 25‰. All peptide concentrations ranged from 0.125 to 65 µg mL^−1, and the bacterial suspension in each well was approximately 5 × 10^5 CFU mL^−1. The different salinities were used to compare any differences in antimicrobial activity in 0‰ and 25‰ water. […] Each bacterium was trialled in duplicate.

[9] = system: Vibrio harveyi (ATCC 35084); remark: listed apart in the source
Protocol: as §1, §2, §4

Vibrio alginolyticus [10] = system: Vibrio alginolyticus; remark: listed apart in the source
Protocol: as §1, §2, §4

Tenacibaculum discolor = system: Tenacibaculum discolor
Protocol: as §1, §2, §4

Vibrio scophthalmi [11] = system: Vibrio scophthalmi; remark: listed apart in the source
Protocol: as §1, §2, §4

Vibrio rotiferianus [12] = system: Vibrio rotiferianus; remark: listed apart in the source
Protocol: as §1, §2, §4

[13] = system: Escherichia coli (ATCC 25922); remark: listed apart in the source
Protocol: as §1, §2, §4

Shewanella sp. [14] = system: Shewanella sp.; remark: listed apart in the source
Protocol: as §1, §2, §4

Pseudoalteromonas sp. = system: Pseudoalteromonas sp.
Protocol: as §1, §2, §4

[15] = no acetic acid (peptide diluted 1:10 in MHB), MHB 0‰, 25 °C, MIC after 48 h, ca. 5 × 10^5 CFU mL^-1, duplicate
[16] = with acetic acid (0.01% acetic acid w/v, 0.2% BSA diluent), MHB 0‰, 25 °C, MIC after 48 h, ca. 5 × 10^5 CFU mL^-1, duplicate
[17] = MHB 0‰, acetic acid only for peptides requiring it, 25 °C, MIC after 48 h, ca. 5 × 10^5 CFU mL^-1, duplicate
[18] = MHB with artificial sea salts 25‰, acetic acid only for peptides requiring it, 25 °C, MIC after 48 h, ca. 5 × 10^5 CFU mL^-1, duplicate

## VLQIKKVLRLLL-NH2 [Peptide 3011]
Vibrio harveyi [1]; [15]
  MIC V. harveyi, No acetic: 32.5 µg/mL
Vibrio harveyi [1]; [16]
  MIC V. harveyi, Acetic: 16.25 µg/mL
[2]; [15]
  MIC V. harveyi ATCC 35084, No acetic: 8.13 µg/mL
[2]; [16]
  MIC V. harveyi ATCC 35084, Acetic: 16.25 µg/mL
Vibrio alginolyticus [3]; [15]
  MIC V. alginolyticus, No acetic: 4.06 µg/mL
Vibrio alginolyticus [3]; [16]
  MIC V. alginolyticus, Acetic: 4.06 µg/mL
Vibrio scophthalmi [4]; [15]
  MIC V. scophthalmi, No acetic: 2.03 µg/mL
Vibrio scophthalmi [4]; [16]
  MIC V. scophthalmi, Acetic: 4.06 µg/mL
Vibrio rotiferianus [5]; [15]
  MIC V. rotiferianus, No acetic: 4.06 µg/mL
Vibrio rotiferianus [5]; [16]
  MIC V. rotiferianus, Acetic: 4.06 µg/mL
[6]; [15]
  MIC E. coli ATCC 25922, No acetic: 8.13 µg/mL
[6]; [16]
  MIC E. coli ATCC 25922, Acetic: 16.25 µg/mL
Shewanella sp. [7]; [15]
  MIC Shewanella sp., No acetic: 16.25 µg/mL
Shewanella sp. [7]; [16]
  MIC Shewanella sp., Acetic: 16.25 µg/mL
Vibrio harveyi [8]; [17]
  MIC V. harveyi, salinity 0‰: 8.13 µg/mL
Vibrio harveyi [8]; [18]
  MIC V. harveyi, salinity 25‰: > 65 µg/mL
[9]; [17]
  MIC V. harveyi ATCC 35084, salinity 0‰: 8.13 µg/mL
[9]; [18]
  MIC V. harveyi ATCC 35084, salinity 25‰: > 65 µg/mL
Vibrio alginolyticus [10]; [17]
  MIC V. alginolyticus, salinity 0‰: 4.06 µg/mL
Vibrio alginolyticus [10]; [18]
  MIC V. alginolyticus, salinity 25‰: > 65 µg/mL
Tenacibaculum discolor; MHB (25‰) diluted 1 part MHB and 7 parts artificial seawater (25‰), 25 °C, MIC after 48 h, ca. 5 × 10^5 CFU mL^-1, duplicate
  MIC T. discolor, salinity 25‰: > 65 µg/mL
Vibrio scophthalmi [11]; [17]
  MIC V. scophthalmi, salinity 0‰: 1.02 µg/mL
Vibrio scophthalmi [11]; [18]
  MIC V. scophthalmi, salinity 25‰: > 65 µg/mL
Vibrio rotiferianus [12]; [17]
  MIC V. rotiferianus, salinity 0‰: 4.06 µg/mL
Vibrio rotiferianus [12]; [18]
  MIC V. rotiferianus, salinity 25‰: > 65 µg/mL
[13]; [17]
  MIC E. coli ATCC 25922, salinity 0‰: 16.25 µg/mL
[13]; [18]
  MIC E. coli ATCC 25922, salinity 25‰: > 65 µg/mL
Shewanella sp. [14]; [17]
  MIC Shewanella sp., salinity 0‰: 8.13 µg/mL
Shewanella sp. [14]; [18]
  MIC Shewanella sp., salinity 25‰: > 65 µg/mL
Pseudoalteromonas sp.; MHB with artificial sea salts 25‰, 25 °C, MIC after 48 h, ca. 5 × 10^5 CFU mL^-1, duplicate
  MIC Pseudoalteromonas sp., salinity 25‰: > 65 µg/mL

## WVGVIIKWGLKL-NH2 [Peptide 3018]
Vibrio harveyi [1]; 48 h
  MIC V. harveyi, Acetic: 16.25 µg/mL
  MIC V. harveyi, No acetic: 16.25 µg/mL
[2]; ATCC 35084, 48 h
  MIC V. harveyi ATCC 35084, Acetic: 16.25 µg/mL
  MIC V. harveyi ATCC 35084, No acetic: 8.13 µg/mL
Vibrio alginolyticus [3]; 48 h
  MIC V. alginolyticus, Acetic: 8.13 µg/mL
  MIC V. alginolyticus, No acetic: 4.06 µg/mL
Vibrio scophthalmi [4]; 48 h
  MIC V. scophthalmi, Acetic: 0.25 µg/mL
  MIC V. scophthalmi, No acetic: 2.03 µg/mL
Vibrio rotiferianus [5]; 48 h
  MIC V. rotiferianus, Acetic: 8.13 µg/mL
  MIC V. rotiferianus, No acetic: 4.06 µg/mL
[6]; ATCC 25922, 48 h
  MIC E. coli ATCC 25922, Acetic: > 65 µg/mL
  MIC E. coli ATCC 25922, No acetic: 16.25 µg/mL
Shewanella sp. [7]; 48 h
  MIC Shewanella sp., Acetic: 16.25 µg/mL
  MIC Shewanella sp., No acetic: 8.13 µg/mL
Vibrio harveyi [8]; 48 h
  MIC V. harveyi, salinity 0‰: 16.25 µg/mL
  MIC V. harveyi, salinity 25‰: > 65 µg/mL
[9]; ATCC 35084, 48 h
  MIC V. harveyi ATCC 35084, salinity 0‰: 32.5 µg/mL
  MIC V. harveyi ATCC 35084, salinity 25‰: > 65 µg/mL
Vibrio alginolyticus [10]; 48 h
  MIC V. alginolyticus, salinity 0‰: 2.03 µg/mL
  MIC V. alginolyticus, salinity 25‰: > 65 µg/mL
Tenacibaculum discolor; 48 h
  MIC T. discolor, salinity 25‰: > 65 µg/mL
Vibrio scophthalmi [11]; 48 h
  MIC V. scophthalmi, salinity 0‰: 1.02 µg/mL
  MIC V. scophthalmi, salinity 25‰: > 65 µg/mL
Vibrio rotiferianus [12]; 48 h
  MIC V. rotiferianus, salinity 0‰: 8.13 µg/mL
  MIC V. rotiferianus, salinity 25‰: > 65 µg/mL
[13]; ATCC 25922, 48 h
  MIC E. coli ATCC 25922, salinity 0‰: 65 µg/mL
  MIC E. coli ATCC 25922, salinity 25‰: > 65 µg/mL
Shewanella sp. [14]; 48 h
  MIC Shewanella sp., salinity 0‰: 16.25 µg/mL
  MIC Shewanella sp., salinity 25‰: > 65 µg/mL
Pseudoalteromonas sp.; 48 h
  MIC Pseudoalteromonas sp., salinity 25‰: > 65 µg/mL
